Entries after “also recorded” stand apart in the source; their conditions may differ. Like-named read-outs stand apart in the source and are kept apart here.
Tests used:
[1] = system: BJ-TERT/LT/ST/RAS^V12 cells; assay: Suppression of erastin-induced cell death (suppressor screen and follow-up); format: cell-based, human; settings: co-treatment with erastin
[2] = system: BJ-TERT/LT/ST/RAS^V12 cells; assay: Alamar Blue viability assay; format: cell-based, human; settings: for IC50: BJ-TERT/LT/ST/RAS^V12 (BJELR) cells, read-out: IC50 (lethality); for Selective lethality / activity of erastin analog: BJ-TERT/LT/ST/RAS^V12 cells versus BJ-TERT cells
Experimental: (a) Calu-1 lung carcinoma cells harboring oncogenic KRAS were infected with lentivirus containing shRNAs targeting KRAS or GFP. Sequences of shRNAs are indicated by starting nucleotide (nt) in the KRAS mRNA coding sequence. Cells were treated with erastin and viability measured by Trypan Blue exclusion. (b) Knockdown of KRAS was confirmed by western blot. (c,d) A673 cells harboring oncogenic BRAF were infected with lentiviral shRNAs targeting BRAF exon 5 (c) or the 5′ UTR (d), luciferase (LUC) (c) or GFP (d). Cells were treated with erastin and viability measured using Alamar Blue (c) and Trypan Blue (d). (e) Knockdown of BRAF was confirmed by western blot. […] BJ-TERT/LT/ST/RAS^V12 cells were treated with erastin alone or in with a MEK inhibitor U0126 (20 μM), MEK inhibitor I (10 μM) or MEK 1/2 inhibitor (50 μM). After 48 h, viability was determined using Trypan Blue. (g) Structures of certain erastin and related analogs. (h) and (i) Dose-response curves were measured for erastin A3 and erastin B2 in BJ-TERT/LT/ST/RAS^V12 cells (black squares) or BJ-TERT cells (grey circles). (j) Calu-1 lung carcinoma cells harboring oncogenic KRAS were infected with lentivirus containing shRNAs targeting KRAS or GFP. Sequences of shRNAs are indicated by starting nucleotide (nt) in the KRAS mRNA coding sequence. Cells were treated with erastin and viability (y-axis) measured by Trypan Blue exclusion. Cells were treated with erastin for 24 hours, and percent inhibition of viability (y-axis) measured using Alamar Blue (k) and Trypan Blue (l). (m) Structures of erastin and related analogs. (n) Dose-response curves were measured for erastin A6, erastin B2, erastin A8 and erastin A9 in BJ-TERT/LT/ST/RAS^V12 cells (squares) or BJ-TERT cells (circles) using Alamar Blue.
Alamar Blue metabolism: 10% Alamar Blue was added to assay plates, which were then incubated for an additional 16 hours. Red fluorescence, resulting from reduction of Alamar Blue, was detected on a Victor3 platereader (ex: 530, em: 590).
Table 2. Activity of RAS-selective lethal compound erastin in tumor cell lines. IC50 values (ng/mL) are shown using the Alamar Blue viability assay. BJ engineered tumor cells express TERT, LT, ST, and oncogenic RAS. Isogenic RAS^V12 lacking cells are identical but lack HRAS^V12. BJ-DRD cells are derived from BJ cells and contain TERT, oncogenic RAS, a truncated from of p53 (p53DD) that disrupts the tetramerization of endogenous p53, a CDK4(R24C) mutant resistant to inhibition by p16INK4A and p151NK4B (the major negative regulators of CDK4) and cyclin D1. These latter protein substitute for LT. HCT-116, A549, Calu-1, and MIA PaCa-2 are tumor cells derived from cancers (colon, lung, lung and pancreatic, respectively) known to have activating mutations in RAS.

[3] = system: taxol resistant CCRF-CEM derivative cells; assay: Cell death in taxol/vinblastine resistance panel; format: cell-based; settings: Homo sapiens
Experimental: (§1) In certain embodiments, the sensitivity to erastin, can be tested in cell lines that are resistant to taxol and vinblastine. The sensitivity of CCRF-CEM parental, and taxol and vinblastine resistant derivative cells to erastin was tested. […] Erastin analogues can be tested to ensure their effectiveness in inducing cell death in tumor cell line which are resistant to taxol or vinblastin, or other ant-tumor agents.

CCRF-CEM parental cells = assay: Cell death in taxol/vinblastine resistance panel; format: cell-based; settings: Homo sapiens
Experimental: as §1

[4] = system: vinblastine resistant CCRF-CEM derivative cells; assay: Cell death in taxol/vinblastine resistance panel; format: cell-based; settings: Homo sapiens
Experimental: as §1

**Q.** `Cc1c(C)c2c(c(C)c1O)CC[C@@](C)(CCC[C@H](C)CCC[C@H](C)CCCC(C)C)O2` [alpha-tocopherol] was tested. Which “Effect on erastin-induced cell death” value [1] did it give?
**A.** prevented erastin-induced death

**Q.** `Cn1cnc(N)c2ncnc1-2` [3-methyladenine] was tested. Which “Effect on erastin-induced cell death” value [1] did it give?
**A.** not suppressed

**Q.** `CC(C)NC(=O)N(CCN1CCN(C(=O)COc2ccc(Cl)cc2)CC1)Cc1ccc(F)cc1` [erastin B1] was tested. Which IC50 [2] did it give?
**A.** 10000 nM

**Q.** And the “Selective lethality / activity of erastin analog” value [2]?
**A.** inactive

**Q.** For `CC(C)NC(=O)N(CCN1CCN(C(=O)COc2ccc(Cl)cc2)CC1)Cc1ccc(CN)cc1` [erastin B2, 1-(4-Aminomethyl-benzyl)-1-(2-{4-[2-(4-chloro-phenoxy)-acetyl]-piperazin-1-yl}-ethyl)-3-isopropyl-urea], which “Selective lethality / activity of erastin analog” value [2] is on record?
**A.** lacking activity in cells; also recorded: lacks activity

**Q.** And the IC50 ([2]; Homo sapiens)?
**A.** > 50000 nM

**Q.** For `CCOc1ccccc1-n1c(C(C)N2CCN(C(=O)COc3ccc(CN)cc3)CC2)nc2ccccc2c1=O` (centres unmarked) [erastin A3], which IC50 [2] is on record?
**A.** 25000 nM

**Q.** And the “Selective lethality / activity of erastin analog” value [2]?
**A.** retained the ability to selectively kill BJ-TERT/LT/ST/RAS^V12 cells; also recorded: retained the ability to kill BJ-TERT/LT/ST/RAS^V12 cells but not BJ-TERT cells

**Q.** With `CC(C)(Oc1ccc(C2CC2(Cl)Cl)cc1)C(=O)O` (centres unmarked) [ciprofibrate] as the compound, how does the “Effect on erastin-induced cell death” value [1] read?
**A.** did not affect erastin-induced cell death

**Q.** For `CC1=C(/C=C/C(C)=C/C=C/C(C)=C/C=C/C=C(C)/C=C/C=C(C)/C=C/C2=C(C)CCCC2(C)C)C(C)(C)CCC1` [beta-carotene], which “Effect on erastin-induced cell death” value [1] is on record?
**A.** prevented erastin-induced death

**Q.** Which “Effect on erastin-induced cell death” value [1] does the source give for `C[C@@H]1C[C@@H]([C@H](O)CC2CC(=O)NC(=O)C2)C(=O)[C@@H](C)C1` [cyclohexamide] here?
**A.** suppressed

**Q.** With `CC[C@]1(O)C[C@@H]2CN(CCc3c([nH]c4ccccc34)[C@@](C(=O)OC)(c3cc4c(cc3OC)N(C)[C@H]3[C@@](O)(C(=O)OC)[C@H](OC(C)=O)[C@]5(CC)C=CCN6CC[C@]43[C@@H]65)C2)C1` [vinblastine] as the compound, how does the IC50 [3] read?
**A.** 93 nM

**Q.** And the IC50 (CCRF-CEM parental cells)?
**A.** 1 nM

**Q.** And the IC50 [4]?
**A.** 370 nM

**Q.** `Cc1cc(C(C)(C)C)c(O)c(C(C)(C)C)c1` [butylated hydroxytoluene] was tested. Which “Effect on erastin-induced cell death” value [1] did it give?
**A.** prevented erastin-induced death

**Q.** `COC(=O)CC(NC(=O)OC(C)(C)C)C(=O)CF` (centres unmarked) [Boc-Asp(Ome)-fluoromethyl ketone] was tested. Which “Effect on erastin-induced cell death” value [1] did it give?
**A.** does not block cell death induced by erastin

**Q.** How did the “Selective lethality / activity of erastin analog” value ([2]; listed as ERA-A6) turn out when `CCOc1ccccc1-n1c(C(C)N2CCN(C(=O)COc3ccc(CN)cc3)CC2)nc2ccccc2c1=O` (centres unmarked) [erastin A6, 2-(1-{4-[2-(4-Aminomethyl-phenoxy)-acetyl]-piperazin-1-yl}-ethyl)-3-(2-ethoxy-phenyl)-3H-quinazolin-4-one] was run?
**A.** selectively lethal to RAS^V12-expressing cells

**Q.** Which “Effect on erastin-induced cell death” value [1] does the source give for `Oc1ncnc2[nH]ncc12` [allopurinol] here?
**A.** did not affect erastin-induced cell death

**Q.** What does the source list for `CC(=O)O[C@H]1C(=O)[C@@]2(C)[C@H]([C@H](OC(=O)c3ccccc3)[C@]3(O)C[C@H](OC(=O)[C@H](O)[C@@H](NC(=O)c4ccccc4)c4ccccc4)C(C)=C1C3(C)C)[C@]1(OC(C)=O)CO[C@@H]1C[C@@H]2O` [taxol]?
**A.** IC50 [3]: 560 nM; IC50 (CCRF-CEM parental cells): 1 nM; IC50 [4]: 1380 nM

**Q.** For `COc1ccc2[nH]cc(CCNC(C)=O)c2c1` [melatonin], which “Effect on erastin-induced cell death” value [1] is on record?
**A.** did not affect erastin-induced cell death

**Q.** Which “Effect on erastin-induced cell death” value [1] does the source give for `O=c1[nH]c(=O)c2c[nH]nc2[nH]1` [oxypurinol] here?
**A.** did not affect erastin-induced cell death

— US20080299076A1, “Compunds and compositions that cause non-apoptotic cell death and uses thereof” (priority 2006, published 2008)
